Consider 7 molecules from patent US10828315B2 (Madrigal Pharmaceuticals, Inc., priority 2013, dated 2020).

Series [1] is described as follows: Mouse plasma stability protocol, up to 1 h (Examples 16-18).
The subject of the next series is HER2. As to the kind of experiment: HER2 degradation assay with BT-474 cell line (Example 12, FACS). It is filed as cell-based, human.
The nature of series [2]: Artificial membrane permeability assay (PAMPA). (The PAMPA barrier holds no transporters, so it reflects passive diffusion.)
For series [3], the system named is human urinary bladder cancer cell line RT-112. Kind of series: Cytotoxicity assay (CellTiter-Glo, 72 h), RT-112. The format is cell-based. The settings on record: RT-112, 72 hours, read-out: Cytotoxicity (IC50, nM) RT-112. (ATP-based viability assays read luminescence as a measure of living cells.)
Procedure: (§1) Cytotoxicity of SDC-TRAP molecules was determined in three cancer cell lines. […] 80 μL of CellTiter-Glo was added to each well, followed by room temperature incubation in the dark for 15 minutes. Cell was determined by luminescence. IC50 was calculated using XLfit™ software.
Series [4] deals with human urinary bladder cancer cell line SW780. Kind of series: Cytotoxicity assay (CellTiter-Glo, 72 h), SW780. It is filed as cell-based. The settings on record: SW780, 72 hours, read-out: Cytotoxicity (IC50, nM) SW-780.
Procedure: as §1
In series [5] the test system is human breast cancer cell line BT-474. As to the kind of experiment: Cytotoxicity assay (CellTiter-Glo, 72 h), BT-474. It is filed as cell-based. The settings on record: BT-474, 72 hours, read-out: Cytotoxicity (IC50, nM) BT-474.
Procedure: as §1
Series [6] can be described thus: SDC-TRAP-0063 PK in male CD-1 mice (IV bolus). Particulars: of monitored analyte. It is filed as in vivo.
Series [7] is described as follows: SDC-TRAP-0063 PK in male SD rats (slow IV bolus). It is filed as in vivo. The settings on record: of monitored analyte.
Setting [8] is: % Remaining of parent after 1 h incubation in mouse plasma at 37° C. (10 μM).
[9] abbreviates: Tissue Distribution Data for SDC-TRAP-0195, Time (h) 0.083.
[10] abbreviates: Tissue Distribution Data for SDC-TRAP-0195, Time (h) 1.
Where [11] appears, read: Tissue Distribution Data for SDC-TRAP-0195, Time (h) 6.
Setting [12] is: Tissue Distribution Data for SDC-TRAP-0195, Time (h) 24.
Where [13] appears, read: Tissue Distribution Data for SDC-TRAP-0195, Time (h) 48.
Where [14] appears, read: dosed SDC-TRAP-0063 50 mpk IV bolus.
Setting [15] is: dosed SDC-TRAP-0063 100 mpk IV bolus.
The mark [16] stands for this setting: dosed SDC-TRAP-0063 200 mpk IV bolus.
[17] abbreviates: dosed SDC-TRAP-0063 10 mpk slow IV bolus.
The mark [18] stands for this setting: dosed SDC-TRAP-0063 50 mpk slow IV bolus.
Where [19] appears, read: dosed SDC-TRAP-0063 100 mpk slow IV bolus.
Setting [20] is: dosed SDC-TRAP-0063 150 mpk slow IV bolus.
The mark [21] stands for this setting: Tissue Distribution Data for SDC-TRAP-0154, Time (h) 0.083.
Where [22] appears, read: Tissue Distribution Data for SDC-TRAP-0154, Time (h) 1.
Setting [23] is: Tissue Distribution Data for SDC-TRAP-0154, Time (h) 6.
The mark [24] stands for this setting: Tissue Distribution Data for SDC-TRAP-0154, Time (h) 24.
[25] abbreviates: Tissue Distribution Data for SDC-TRAP-0154, Time (h) 48.

Structures are written as SMILES. Where two headings read alike, the source gives them in different places.

With `CCc1c2c(nc3ccc(O)cc13)-c1cc3c(c(=O)n1C2)COC(=O)[C@@]3(CC)OC(=O)N1CCC(CCn2ccc3cc(-n4c(O)nnc4-c4cc(C(C)C)c(O)cc4O)ccc32)CC1` [SDC-TRAP-0064, (S)-4,11-diethyl-9-hydroxy-3,14-dioxo-3,4,12,14-tetrahydro-1H-pyrano[3′,4′:6,7]indolizino[1,2-b]quinolin-4-yl 4-(2-(5-(3-(2,4-dihydroxy-5-isopropylphenyl)-5-hydroxy-4H-1,2,4-triazol-4-yl)-1H-indol-1-yl)ethyl)piperidine-1-carboxylate], the “% Remaining (1 h)” value in series [1] (setting [8]) is recorded as 91.5%; in [1] (mouse plasma, 37° C., 10 μM) it was 91.5%. Further, in series [1] (mouse plasma, 37° C.), the “% Remaining (1 h, 37° C.)” value is on record as 91.5%. For the same molecule, the half-inhibitory concentration (IC50) in the series with HER2 is 1130 nM. Further, in [2] (same protocol, second table), the “Mass Retention” value was 48.4%.

Consider `CCNC(=O)c1nnc(-c2cc(C(C)C)c(O)cc2O)n1-c1ccc(CN2CCC(C(=O)N3CCN(c4cc(C)c(OC(=O)Nc5cccc6c5CN(C5CCC(=O)NC5=O)C6=O)c(C)c4)CC3)CC2)cc1` (stereo not shown) [SDC-TRAP-0195, 4-(4-(1-(4-(3-(2,4-dihydroxy-5-isopropylphenyl)-5-(ethylcarbamoyl)-4H-1,2,4-triazol-4-yl)benzyl)piperidine-4-carbonyl)piperazin-1-yl)-2,6-dimethylphenyl (2-(2,6-dioxopiperidin-3-yl)-1-oxoisoindolin-4-yl)carbamate], for which, in series [1] (setting [8]), the “% Remaining (1 h)” value was 98.4%. Besides, the “Plasma Conc.” value under setting [9] came out at 1220 µM; the “Plasma Conc.” value under setting [10] was found to be 211 µM; the “Plasma Conc.” value under setting [11] came to 7.23 µM; the “Plasma Conc.” value under setting [12] was 2.03 µM; the “Plasma Conc.” value under setting [13] was “BQL”. The “Tumor Conc.” value runs as follows: under setting [9], 17.1 nmol/g of tissue; under setting [10], 23.0 nmol/g of tissue; under setting [11], 17.1 nmol/g of tissue; under setting [12], 11.2 nmol/g of tissue; under setting [13], 12.6 nmol/g of tissue. The “Tumor/Plasma Ratio” value was 0.0140 under setting [9], 0.109 under setting [10], 2.36 under setting [11] and 5.50 under setting [12]. The IC50 with HER2 came to 49 nM. Besides, the “Mass Retention” value in series [2] (incubation 5 h, first table) was 27.1%.

As for `COc1cccc2c1C(=O)c1c(O)c3c(c(O)c1C2=O)C[C@@](O)(/C(CO)=N/NC(=O)CCn1ccc2cc(-n4c(O)nnc4-c4cc(C(C)C)c(O)cc4O)ccc21)C[C@@H]3O[C@H]1C[C@H](N)[C@H](O)[C@H](C)O1` [SDC-TRAP-0219, (E)-N′-(1-((2S,4S)-4-(((2R,4S,5S,6S)-4-amino-5-hydroxy-6-methyltetrahydro-2H-pyran-2-yl)oxy)-2,5,12-trihydroxy-7-methoxy-6,11-dioxo-1,2,3,4,6,11-hexahydrotetracen-2-yl)-2-hydroxyethylidene)-3-(5-(3-(2,4-dihydroxy-5-isopropylphenyl)-5-hydroxy-4H-1,2,4-triazol-4-yl)-1H-indol-1-yl)propanehydrazide], the values for the IC50 in series [3], in series [4] and in series [5] were 973 nM, over 10000 nM and over 10000 nM, respectively.

Take `CCNC(=O)c1nnc(-c2cc(C(C)C)c(O)cc2O)n1-c1ccc2c(ccn2CCC2CCN(C(=O)O[C@]3(CC)C(=O)OCc4c3cc3n(c4=O)Cc4c-3nc3ccc(O)cc3c4CC)CC2)c1` [SDC-TRAP-0208, (S)-4,11-diethyl-9-hydroxy-3,14-dioxo-3,4,12,14-tetrahydro-1H-pyrano[3′,4′: 6,7]indolizino[1,2-b]quinolin-4-yl 4-(2-(5-(3-(2,4-dihydroxy-5-isopropylphenyl)-5-(ethylcarbamoyl)-4H-1,2,4-triazol-4-yl)-1H-indol-1-yl)ethyl)piperidine-1-carboxylate]: the “% Remaining (1 h)” value in series [1] (setting [8]) is 86.1%. The “% Remaining (1 h, 37° C.)” value in series [1] (mouse plasma, 37° C.) was found to be 86.1%. Further, in the series with HER2, the IC50 was 480 nM. Moreover, in series [2] (same protocol, second table), the “Mass Retention” value is listed as 25.0%.

With `CCNC(=O)c1nnc(-c2cc(C(C)C)c(O)cc2O)n1-c1ccc2c(ccn2CCC2CCN(C(=O)Oc3ccc4nc5c(c(CC)c4c3)Cn3c-5cc4c(c3=O)COC(=O)[C@]4(O)CC)CC2)c1` [SDC-TRAP-0205, (S)-4,11-diethyl-4-hydroxy-3,14-dioxo-3,4,12,14-tetrahydro-1H-pyrano[3′,4′:6,7]indolizino[1,2-b]quinolin-9-yl 4-(2-(5-(3-(2,4-dihydroxy-5-isopropylphenyl)-5-(ethylcarbamoyl)-4H-1,2,4-triazol-4-yl)-1H-indol-1-yl)ethyl)piperidine-1-carboxylate], in series [1] (setting [8]), the “% Remaining (1 h)” value is on record as 58.4%. Also, the “% Remaining (1 h, 37° C.)” value in series [1] (mouse plasma, 37° C.) is on record as 58.4%. In the series on HER2, this molecule displayed an IC50 of 564 nM. Further, the “Mass Retention” value in [2] (same protocol, second table) worked out at 10.9%.

With `CCc1c2c(nc3ccc(OC(=O)N4CCC(CCn5ccc6cc(-n7c(O)nnc7-c7cc(C(C)C)c(O)cc7O)ccc65)CC4)cc13)-c1cc3c(c(=O)n1C2)COC(=O)C3(O)CC` (stereo not shown) [compound 0063], in series [6] (setting [14]), the AUCinf was 237 µM·h, the AUCt turned out to be 235 µM·h, the CL was determined as 4 mL/min/kg and the highest level (Cmax) was 414 µM. Also, in series [6] (setting [14]), the time to peak (Tmax) turned out to be 4.98 min, the Vss is on record as 0.122 L/kg, the Vz is recorded as 0.659 L/kg and the t1/2 worked out at 114 min. In series [6] (setting [15]), this molecule yielded an AUCinf of 549 µM·h, an AUCt of 549 µM·h, a CL of 3.45 mL/min/kg and a Cmax of 799 µM. For the same molecule, in [6] (setting [15]), the Tmax was found to be 4.98 min, the Vss is on record as 0.241 L/kg, the Vz was determined as 0.747 L/kg and the t1/2 came to 150 min. In [6] (setting [16]), this molecule came in with an AUCinf of 2884 µM·h, an AUCt of 2882 µM·h, a CL of 1.32 mL/min/kg and a Cmax of 1620 µM. Moreover, in series [6] (setting [16]), the Tmax was 4.98 min, the distribution volume (Vss) was 0.173 L/kg, the Vz amounted to 0.307 L/kg and the t1/2 amounted to 162 min. In series [7] (setting [17]), the AUCinf was found to be 38.8 µM·h, the AUCt worked out at 38.8 µM·h, the CL worked out at 4.9 mL/min/kg and the maximum concentration (Cmax) was determined as 102 µM. For the same molecule, in series [7] (setting [17]), the Tmax stood at 4.98 min, the Vss was found to be 0.0590 L/kg, the volume of distribution (Vz) was determined as 0.441 L/kg and the t1/2 was determined as 60 min. For the same molecule, in series [7] (setting [18]), the AUCinf amounted to 687 µM·h, the AUCt came to 687 µM·h, the CL came to 1.38 mL/min/kg and the Cmax is 659 µM. Further, in series [7] (setting [18]), the time of peak concentration (Tmax) amounted to 4.98 min, the Vss was 0.0640 L/kg, the Vz is given as 0.0924 L/kg and the t1/2 was found to be 48 min. In [7] (setting [19]), this molecule yielded an AUCinf of 1786 µM·h, an AUCt of 1785 µM·h, a CL of 1.08 mL/min/kg and a Cmax of 1210 µM. Moreover, in [7] (setting [19]), the Tmax came out at 4.98 min, the Vss is given as 0.0654 L/kg, the volume of distribution (Vz) came to 0.153 L/kg and the t1/2 stood at 96 min. In series [7] (setting [20]), this molecule gave an AUCinf of 5302 µM·h, an AUCt of 5302 µM·h, a CL of 0.547 mL/min/kg and a Cmax of 1900 µM. In series [7] (setting [20]), the time to peak (Tmax) came to 30 min, the Vss came to 0.0663 L/kg, the Vz was 0.0855 L/kg and the t1/2 came to 108 min.

With `CCNC(=O)c1nnc(-c2cc(C(C)C)c(O)cc2O)n1-c1ccc(Oc2ccc(C(=O)N3CCC(C(=O)OC4(CC)C(=O)OCc5c4cc4n(c5=O)Cc5c-4nc4ccc(O)cc4c5CC)CC3)cc2)cc1` (stereo not shown) [SDC-TRAP-0154, 4,11-Diethyl-9-hydroxy-3,14-dioxo-3,4,12,14-tetrahydro-1H-pyrano[3′,4′:6,7]indolizino[1,2-b]quinolin-4-yl 1-(4-(4-(3-(2,4-dihydroxy-5-isopropylphenyl)-5-(ethylcarbamoyl)-4H-1,2,4-triazol-4-yl)phenoxy)benzoyl)piperidine-4-carboxylate], the “Plasma Conc.” value is, setting by setting: under setting [21], 928 µM; under setting [22], 251 µM; under setting [23], 5.08 µM; under setting [24], 0.198 µM; under setting [25], 0.0218 µM. The “Tumor Conc.” value is 11.8 nmol/g of tissue under setting [21]; 14.1 nmol/g of tissue under setting [22]; 9.46 nmol/g of tissue under setting [23]; 2.35 nmol/g of tissue under setting [24]; 1.88 nmol/g of tissue under setting [25]. Besides, the “Tumor/Plasma Ratio” value reads like this: under setting [21], 0.01; under setting [22], 0.06; under setting [23], 1.86; under setting [24], 11.9; under setting [25], 86.0. In the series with HER2, the concentration for half-maximal inhibition (IC50) came out at 191 nM. Besides, in [2] (same protocol, second table), the “Mass Retention” value is 10.3%.

The term IC50 denotes the concentration that gives 50% inhibition. The Cmax is the peak of the concentration-time curve. Broadly, the Tmax is the time at which the peak concentration occurs. By Vss is commonly meant a proportionality between amount in the body and measured concentration, not a real space. Read a low Vss as confinement near the circulation. Usually Vz stands for the apparent volume that relates the amount in the body to the concentration in plasma or blood.
